Results from US20240099302A1, “Use of a Biobased Composition Comprising Ferulated Chitosan for Regulating and Stimulating Plant Growth” (FYTEKO SA, priority 2020, published 2024).

Tested on: new guinea impatient plants cultivar Sony pink
Assay: Effect of foliar spraying on flowering of new guinea impatient plants
Format: in vivo
Settings: foliar spraying once a week for 8 weeks, evaluated 22 weeks after sowing
Method: Different treatments were applied by foliar spraying on one-month old new guinea impatient plants cultivar Sony pink once a week for 8 weeks. The effect of foliage of application on the inflorescence was evaluated at the end of the flowering step (22 weeks after sowing) and the results are shown in Table 12.

Compound	Average diameter of the flowers [cm]	Total number of flowers per plant
COc1cc(/C=C/C(=O)O)ccc1O [Ferulic acid]	6.40	60.0
Diferulic acid	6.52	74.2
